The values that follow come from US20260062443A1 (ALEXION PHARMACEUTICALS, INC., priority 2022, published 2026).

The target in this experiment is T1, Human complement C1s enzyme (Homo sapiens, UniProt P09871).
T1 sequence (P09871 438-688 limits assumed): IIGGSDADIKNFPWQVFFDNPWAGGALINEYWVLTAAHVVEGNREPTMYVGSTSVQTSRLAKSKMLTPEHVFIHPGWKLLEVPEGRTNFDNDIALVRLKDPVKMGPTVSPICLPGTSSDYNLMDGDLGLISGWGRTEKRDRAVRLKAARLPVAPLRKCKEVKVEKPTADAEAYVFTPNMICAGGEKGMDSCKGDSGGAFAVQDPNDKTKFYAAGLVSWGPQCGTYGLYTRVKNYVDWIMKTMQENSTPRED
T1 sequence (P09871 16-437 partner limits assumed): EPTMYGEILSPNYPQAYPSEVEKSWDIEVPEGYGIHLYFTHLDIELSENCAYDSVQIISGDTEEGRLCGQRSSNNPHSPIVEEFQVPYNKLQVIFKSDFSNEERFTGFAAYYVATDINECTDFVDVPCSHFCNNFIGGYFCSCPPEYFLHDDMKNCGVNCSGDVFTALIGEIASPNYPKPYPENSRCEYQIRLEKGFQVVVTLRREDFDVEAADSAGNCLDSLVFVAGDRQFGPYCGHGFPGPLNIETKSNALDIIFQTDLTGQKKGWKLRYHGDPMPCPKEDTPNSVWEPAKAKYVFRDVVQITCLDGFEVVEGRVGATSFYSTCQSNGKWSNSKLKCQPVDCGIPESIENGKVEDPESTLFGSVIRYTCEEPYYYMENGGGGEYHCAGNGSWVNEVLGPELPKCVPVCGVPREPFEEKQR
As to the kind of experiment: Human C1s enzyme assay. The experiment is classed as biochemical. The note with it: human complement C1s enzyme 1.16 nM, substrate Z-L-Lys-SBzl 100 μM, 5 min preincubation; read-out: IC50 (Stars), C1s Inhibiting Activity. Put shortly:
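Serum-purified human C1s (1.16 nM final) preincubated 5 min at room temperature with compound in 50 mM Tris, 1 M NaCl, pH 7.5. Z-L-Lys-SBzl and DTNB added at 100 μM each; A405 followed every 30 s for 30 min, and IC50 obtained by nonlinear regression of reaction rates.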

Take `C[C@@H](NC(=O)[C@@H]1CC2(CCCCC2)CN1C(=O)CNC(=O)c1ccc2c(c1)Oc1ccccc1S2)c1cc2cnccc2[nH]1` [Compound 234, (S)-N-((R)-1-(1H-pyrrolo[3,2-c]pyridin-2-yl)ethyl)-2-((phenoxathiine-3-carbonyl)glycyl)-2-azaspiro[4.5]decane-3-carboxamide]: the 50% inhibitory concentration (IC50) (usually the concentration that inhibits the measured activity by half) is less than 100 nM.

Regarding `O=C(NCC(=O)N1C[C@H](OC(F)F)C[C@H]1C(=O)NCc1cnc2c(c1)NCC2)c1ccc2c(c1)Oc1ccccc1S2` [Compound 257, (2S,4R)-4-(difluoromethoxy)-N-((2,3-dihydro-1H-pyrrolo[3,2-b]pyridin-6-yl)methyl)-1-((phenoxathiine-3-carbonyl)glycyl)pyrrolidine-2-carboxamide], the concentration for half-maximal inhibition (IC50) was more than 1000 nM.

For `Cc1cccc(-c2nc(C)cc(C(=O)NCC(=O)N3CC4(C[C@H]3C(=O)NCc3cc5cnccc5[nH]3)OCCO4)c2C)c1` [Compound 306, (S)-N-((1H-pyrrolo[3,2-c]pyridin-2-yl)methyl)-7-((3,6-dimethyl-2-(m-tolyl)isonicotinoyl)glycyl)-1,4-dioxa-7-azaspiro[4.4]nonane-8-carboxamide], the IC50 was less than 100 nM.

Regarding `C[C@@H](NC(=O)[C@@H]1C[C@]2(C)C[C@@H]2N1C(=O)CNC(=O)c1ccc2oc3ccccc3c2c1)c1cc2cnccc2[nH]1` [Compound 200, (1S,3S,5S)-N-((R)-1-(1H-pyrrolo[3,2-c]pyridin-2-yl)ethyl)-2-((dibenzo[b,d]furan-2-carbonyl)glycyl)-5-methyl-2-azabicyclo[3.1.0]hexane-3-carboxamide], the half-maximal inhibitory concentration (IC50) is less than 100 nM.

Take `C[C@@H](NC(=O)[C@@H]1C[C@@H](c2nccs2)CN1C(=O)CNC(=O)c1ccc2c(c1)Oc1ccccc1S2)c1cc2cnccc2[nH]1` [Compound 150, (2S,4R)-N-((R)-1-(1H-pyrrolo[3,2-c]pyridin-2-yl)ethyl)-1-((phenoxathiine-3-carbonyl)glycyl)-4-(thiazol-2-yl)pyrrolidine-2-carboxamide]: the IC50 is less than 100 nM.

As to `C[C@@]12C[C@@H]1N(C(=O)CNC(=O)c1ccc3oc4ccccc4c3c1)[C@H](C(=O)NCc1cc3cnccc3[nH]1)C2` [Compound 203, (1S,3S,5S)-N-((1H-pyrrolo[3,2-c]pyridin-2-yl)methyl)-2-((dibenzo[b,d]furan-2-carbonyl)glycyl)-5-methyl-2-azabicyclo[3.1.0]hexane-3-carboxamide], the IC50 is less than 100 nM.

For `O=C(NCC(=O)N1CC2(C[C@H]1C(=O)NCc1cc3nccnc3[nH]1)OCCO2)c1ccc2c(c1)Oc1ccccc1S2` [Compound 48, (S)-N-((5H-pyrrolo[2,3-b]pyrazin-6-yl)methyl)-7-((phenoxathiine-3-carbonyl)glycyl)-1,4-dioxa-7-azaspiro[4.4]nonane-8-carboxamide], the IC50 was more than 1000 nM.

`CCc1ccc(Oc2cccc(C(=O)NCC(=O)N3C[C@H](OC(F)F)C[C@H]3C(=O)NCc3cc4cnccc4[nH]3)c2)cc1` [Compound 293, (2S,4R)-N-((1H-pyrrolo[3,2-c]pyridin-2-yl)methyl)-4-(difluoromethoxy)-1-((3-(4-ethylphenoxy)benzoyl)glycyl) pyrrolidine-2-carboxamide]: the concentration for half-maximal inhibition (IC50) is less than 100 nM.

With `O=C(NCC(=O)N1C[C@H](OC(F)F)C[C@H]1C(=O)NCc1cc2c(s1)CCNC2)c1ccc2c(c1)Oc1ccccc1S2` [Compound 313, (2S,4R)-4-(difluoromethoxy)-1-((phenoxathiine-3-carbonyl)glycyl)-N-((4,5,6,7-tetrahydrothieno[3,2-c]pyridin-2-yl)methyl)pyrrolidine-2-carboxamide], the IC50 was less than 100 nM.

In the case of `C[C@@]12C[C@@H]1N(C(=O)CNC(=O)c1ccc3c(c1)Oc1ccccc1S3)[C@H](C(=O)NCc1cccc(B(O)O)c1)C2` [Compound 250, (3-(((1S,3S,5S)-5-methyl-2-((phenoxathiine-3-carbonyl)glycyl)-2-azabicyclo[3.1.0]hexane-3-carboxamido)methyl)phenyl) boronic acid], the 50% inhibitory concentration (IC50) is more than 1000 nM.

Consider `O=C(NCC(=O)N1C[C@H](OC(F)F)C[C@H]1C(=O)NCc1cc2cnccc2[nH]1)c1ccccc1Oc1ccccc1` [Compound 239, (2S,4R)-N-((1H-pyrrolo[3,2-c]pyridin-2-yl)methyl)-4-(difluoromethoxy)-1-((2-phenoxybenzoyl)glycyl)pyrrolidine-2-carboxamide], for which the 50% inhibitory concentration (IC50) was more than 1000 nM.

With `C[C@@H](NC(=O)[C@@H]1C[C@]2(C)C[C@@H]2N1C(=O)CN1Cc2cc(-c3ccc(F)cc3F)ccc2C1=O)c1cc2cnccc2[nH]1` [Compound 113, (1S,3S,5S)-N-((R)-1-(1H-pyrrolo[3,2-c]pyridin-2-yl)ethyl)-2-(2-(5-(2,4-difluorophenyl)-1-oxoisoindolin-2-yl)acetyl)-5-methyl-2-azabicyclo[3.1.0]hexane-3-carboxamide], the concentration for half-maximal inhibition (IC50) was less than 100 nM.

Regarding `C[C@H](NC(=O)[C@@H]1C[C@]2(C)C[C@@H]2N1C(=O)CNC(=O)CCCOc1ccccc1)c1cc2cnccc2[nH]1` [Compound 57, (1S,3S,5S)-N-((S)-1-(1H-pyrrolo[3,2-c]pyridin-2-yl)ethyl)-5-methyl-2-((4-phenoxybutanoyl)glycyl)-2-azabicyclo[3.1.0]hexane-3-carboxamide], the half-maximal inhibitory concentration (IC50) is more than 1000 nM.

As for `C[C@@H](NC(=O)[C@@H]1C[C@@H](OC(F)F)CN1C(=O)CNC(=O)c1cccc(Oc2ccc(F)cc2)c1)c1cc2cnccc2[nH]1` [Compound 241, (2S,4R)-N-((R)-1-(1H-pyrrolo[3,2-c]pyridin-2-yl)ethyl)-4-(difluoromethoxy)-1-((3-(4-fluorophenoxy)benzoyl)glycyl) pyrrolidine-2-carboxamide], the IC50 is less than 100 nM.

In the case of `O=C(NCc1cc2cnccc2[nH]1)[C@@H]1CC2(CN1C(=O)CN1Cc3cc(-c4ccc(F)cc4)ccc3C1=O)OCCO2` [Compound 121, (S)-N-((1H-pyrrolo[3,2-c]pyridin-2-yl)methyl)-7-(2-(5-(4-fluorophenyl)-1-oxoisoindolin-2-yl)acetyl)-1,4-dioxa-7-azaspiro[4.4]nonane-8-carboxamide], the half-maximal inhibitory concentration (IC50) was in the range of 100 to 1000 nM.

Regarding `O=C(NCC(=O)N1C[C@H](OC(F)F)C[C@H]1C(=O)NCc1ccc2c(c1)NCC2)c1ccc2c(c1)Oc1ccccc1S2` [Compound 198, (2S,4R)-4-(difluoromethoxy)-N-(indolin-6-ylmethyl)-1-((phenoxathiine-3-carbonyl)glycyl)pyrrolidine-2-carboxamide], the IC50 was more than 1000 nM.

`O=C(NCC(=O)N1C[C@H](OC(F)F)C[C@H]1C(=O)NCc1ccc2cnccc2c1)c1ccc2c(c1)Oc1ccccc1S2` [Compound 236, (2S,4R)-4-(difluoromethoxy)-N-(isoquinolin-6-ylmethyl)-1-((phenoxathiine-3-carbonyl)glycyl)pyrrolidine-2-carboxamide]: the half-maximal inhibitory concentration (IC50) was more than 1000 nM.

As for `COc1cccc(C(=O)NCC(=O)N2C[C@H](OC(F)F)C[C@H]2C(=O)NCc2cc3cnccc3[nH]2)c1` [Compound 382, (2S,4R)-N-((1H-pyrrolo[3,2-c]pyridin-2-yl)methyl)-4-(difluoromethoxy)-1-((3-methoxybenzoyl)glycyl) pyrrolidine-2-carboxamide], the IC50 was 100 to 1000 nM.

In the case of `COC[C@@]1(F)C[C@@H](C(=O)N[C@H](CO)c2cc3cnccc3[nH]2)N(C(=O)CNC(=O)c2ccc(Oc3ccc(F)cc3)cc2)C1` [Compound 97, (2S,4R)-4-fluoro-1-((4-(4-fluorophenoxy)benzoyl)glycyl)-N-((S)-2-hydroxy-1-(1H-pyrrolo[3,2-c]pyridin-2-yl)ethyl)-4-(methoxymethyl) pyrrolidine-2-carboxamide], the IC50 was more than 1000 nM.
